Assay [1] has as its system protease activity of NEV fractions. Kind of assay: In vitro protease cleavage activity of NEV viral protein fractions (fluorescence assay). It is filed as biochemical. To be noted: inhibitor 10 μM; Phe-Phe substrate pH 3 and 4, HIV substrate 1 pH 5; fractions 12, 15 and 16. As for the experimental part:
To assess for in vitro proteolytic cleavage activity, cell infections were performed in serum free media conditions. Day 5-7 p.i. viral particles were concentrated and extensively washed with HBSS in Vivaspin 100 kDa (Sartorius) columns. Concentrated viral particles were lysed in 0.1% SDS and submitted to analytical size-exclusion chromatography on a Superdex 200 5/150 GL (GE Healthcare Life Sciences) column connected to a Prominence HPLC system (Shimadzu Corporation, Tokyo, Japan). The column was equilibrated in 20 mM phosphate buffer pH 7.5 containing 150 mM NaCl.
The protease activity was determined by fluorescence assays in 96-well plates in a Gemini EM Fluorescence Microplate Reader, using the HIV Protease Substrate 1 Arg-Glu(EDANS)-Ser-Gln-Asn-Tyr-Pro-Ile-Val-Gln-Lys(DABCYL)-Arg (Sigma Aldrich) or the Phe-Phe substrate. For determination of the pH profile, viral particles were assayed for activity at 37° C. in buffers ranging between pH 3 and 6 (50 mM sodium acetate pH 3.0, 4.0, 5.0, and 6.0; 50 mM Tris-HCl […]) containing 100 mM NaCl. To test the specificity of enzymatic cleavage, Indinavir (Sigma Aldrich), a specific inhibitors of HIV protease, or pepstatin were used. The protease was pre-incubated in the presence of the inhibitor. […] The rate of substrate hydrolysis was monitored for 3 hours by the increase of intensity with excitation/emission wavelengths of 328/393 nm.

Assay [2] concerns mab#4G6E4. Kind of assay: ELISA dose response of mab#4G6E4 on peptide-coated wells. The format is binding, Mouse. As for the experimental part: For that, serial dilutions of peptides in duplicates (1:1.3 or 1:1.4 in 0.05M carbonate buffer pH=9.3) ranging between 5 to 500 ng/mL were covalently linked to 96 microwell Poylsorp amino plates (Nunc, Thermofisher) for two hours at room temperature. To remove unbound peptide, plates were washed three times with PBS-Tween20 (0.005%) in an automated Wellwasher apparatus (Thermoscientific). After washing, plates were blocked by adding 300 microliters/well of Superblock T20 in PBS (Thermoscientific, Pierce). Superblock T20 was immediately removed and plates inverted till drying out. After blocked and dried plates were ready for c-ELISA or to be stored at 4-8° C. for further testing. […]
A rapid (2 hours) c-ELISA procedure was performed as follows: 70 ng/mL of mab#4G6E4 alone (50 microliters) diluted in dilution buffer was added to peptide-coated wells and incubated for 1 hour at 37° C. After 1 hour of incubation plates were extensively washed with 300 microliters of PBS-Tween20 (0.05%) for three times. The plate was after that incubated with a secondary goat anti-mouse IgG-HRP (Sigma Aldrich) at 1:2500 dilution and incubated for 30 minutes at 37° C. Plates were washed again four times with 300 microliters of PBS-Tween20 (0.05%) and signal developed by adding 50 microliters of fresh TMB reagent (Sigma Aldrich) for 15 minutes at room temperature. After colour development the reaction was stopped by adding 50 microliters of 1N H2SO4 (Sigma Aldrich). Determination of absorbance was obtained by reading plates at 450 nm in a Multiskan Go ELISA reader (Thermoscientific).
Dose responses curves were analysed by GraphPad Prism 6.0 software by using the four parameter function log(agonist) vs response with a variable slope. […] The Hill slope was very high for both peptides 7.2 for SEQ ID NO: 159 and 6.6 for SEQ ID NO: 20. The results are indicating high affinity between the mab and the peptide sequences (FIG. 6A1).
Furthermore dose response curves were optimized in order to decrease the Hill Slope and turn the assay more sensitive. […]

The mark [3] stands for this setting: 70 ng/mL mab#4G6E4 diluted in 3% BSA, peptide 5 to 500 ng/mL, four parameter fit.

Where a SMILES comes first, the peptide text is derived from it. [ ]: non-standard residue; d: D form. The star is where a group is joined. Sta = CC(C)C[C@H](N)[C@@H](O)CC(=O)O; Isovaleryl = CC(C)CC(=O)*

Consider `CC(C)(C)NC(=O)[C@@H]1CN(Cc2cccnc2)CCN1C[C@@H](O)C[C@@H](Cc1ccccc1)C(=O)N[C@H]1c2ccccc2C[C@H]1O` [Indinavir], for which the “inhibition of the protease activity of NEV fractions” value in assay [1] is “able to inhibit”.
As a reminder, the EC50 is the midpoint of the concentration-response curve. A higher EC50 goes with a need for much substance. As to QEQNPPPSVSLRSLFGNDPL [SEQ ID NO: 20], the EC50 in assay [2] (setting [3]) was 0.1937 µg/mL.
For `CC(C)CC(=O)N[C@H](C(=O)N[C@H](C(=O)N[C@@H](CC(C)C)[C@@H](O)CC(=O)N[C@@H](C)C(=O)N[C@@H](CC(C)C)[C@@H](O)CC(=O)O)C(C)C)C(C)C` [pepstatin] (Isovaleryl-VV[Sta]A[Sta]-OH), the “inhibition of the protease activity of NEV fractions” value in assay [1] is recorded as “able to inhibit”.
With “EALDKIEEIQNKNKQKAAAQEQNPPPSVSLRSLFG [SEQ ID NO: 159]”, the values for the EC50 in assay [2] (setting [3]) and in assay [2] (mab#4G6E4 (70 ng/mL) in 0.025% casein blocking instead of 3% BSA) were 0.1635 µg/mL and 0.059 µg/mL, respectively.
